Tests used:
Chang cells = assay: GSK-3 cellular assay (C2): 14C-D-glucose incorporation into glycogen; type: cell-based; settings: increase in D-glucose incorporation into glycogen, test concentration of 10^−6 M
Method: Test compounds were tested for their ability to increase the incorporation of ^14C-D-glucose into glycogen in living cells. To do this, Chang cells (360,000 cells/well) were cultured in 0.5 ml of MEM Rega 3 medium supplemented with 10% fetal calf serum, 1% L-glutamine and 2% sodium carbonate. After 3 days, cells were washed with 0.5 ml of phosphate-buffered saline and overlayed with 1 ml of serum- and glucose-free DMEM medium. Then, 2 μl of compound in DMSO and 50 μl substrate (3 mM glucose and 0.5 μCi ^14C-D-glucose were added and the cultures were incubated for 90 min. Cells were then extracted with 0.5 ml of 20% KOH for 60 min at 37° C. and the cell lysates were transferred to 10 ml tubes containing 300 μl of 1 mg/ml glycogen as […]. Following the addition of 2 ml ethanol, total glycogen was precipitated overnight at −20° C. and the precipitates were recovered by centrifugation. Precipitates were then resuspended in 1 ml of water and transferred to scintillation counter vials. and the amount of ^14C-D-glucose incorporation into glycogen was measured by scintillation counting. Scores for the compounds according to the invention, were obtained at a test concentration of 10^−6 M. Score 1=10-30% increase, Score 2=30-60% increase, Score 3=60-80% increase and Score 4=>80% increase in D-glucose incorporation.

CDK2/cyclinA (h) = CDK2/cyclinA (h) (Homo sapiens, UniProt P24941); assay: Kinase profiling C3.3 CDK2/cyclinA human; type: biochemical; settings: test concentration of 10^−6 M
How it was run: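 Human CDK2/cyclinA (5-10 mU) phosphorylates 0.1 mg/ml histone H1 in 8 mM MOPS pH 7.0, EDTA, 10 mM Mg acetate with [γ-33P]ATP, 40 min at room temperature. After phosphoric acid stop, filter-bound 33P counted by scintillation.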

CDK6/cyclinD3 human = CDK6/cyclinD3 human (Homo sapiens, UniProt Q00534); assay: Kinase profiling C3.7 CDK6/cyclinD3 human; type: biochemical; settings: CDK6/cyclinD3, test concentration of 10^−6 M
Method: (§1) The in vitro inhibition of a panel of kinases was assessed using either the glass-fiber filter technology as described by Davies, S. P. et al., Biochem J. (2000), 351; p. 95-105. In the glass-fiber filter technology the activity of the kinase of interest is measured using an appropriate substrate that is incubated with the aforementioned kinase protein in the presence of (^33P) radiolabeled ATP. (^33P) Phosporylation of the substrate is subsequently measured as radioactivity bound on a glassfiber-filter.
(§2) All kinases are pre-diluted to a 10× working concentration prior to addition into the assay. The composition of the dilution buffer for each kinase is detailed below.
(§3) All substrates are dissolved and diluted to working stocks in de-ionised water, apart from histone H1 that is stored in 10× working stock in 20 mM MOPS pH 7.4.
(§4) In a final reaction volume of 25 μl, CDK6/cyclinD3 human (5-10 mU) is incubated with 8 mM MOPS pH 7.0, 0.2 mM EDTA, 0.1 mg/ml histone H1, 10 mM MgAcetate and [γ-^33P-ATP] (specific activity approx. 500 cpm/pmol, concentration as required). The reaction is initiated by the addition of the MgATP mix. After incubation for 40 minutes at room temperature, the reaction is stopped by the addition of 5 μl of a 3% phosphoric acid solution. 10 μl of the reaction is then spotted onto a P30 filtermat and washed three times for 5 minutes in 75 mM phosphoric acid and once in methanol prior to drying and scintillation counting.

Yes (h) = Yes (h) (Homo sapiens, UniProt P07947); assay: Kinase profiling C3.10 Yes human; type: biochemical; settings: test concentration of 10^−6 M
Method: as §1, §2, §3
as §4, with “Yes (h)” for “CDK6/cyclinD3 human”, “poly(Glu, Tyr) 4:1,” for “histone H1,”, “Filtermat A” for “P30 filtermat”

Aurora-A (h) = molecular target: T1, Aurora-A (h) (Homo sapiens, UniProt O14965); assay: Kinase profiling C3.1 Aurora-A human; type: biochemical; settings: test concentration of 10^−6 M
T1 sequence (O14965 1-403): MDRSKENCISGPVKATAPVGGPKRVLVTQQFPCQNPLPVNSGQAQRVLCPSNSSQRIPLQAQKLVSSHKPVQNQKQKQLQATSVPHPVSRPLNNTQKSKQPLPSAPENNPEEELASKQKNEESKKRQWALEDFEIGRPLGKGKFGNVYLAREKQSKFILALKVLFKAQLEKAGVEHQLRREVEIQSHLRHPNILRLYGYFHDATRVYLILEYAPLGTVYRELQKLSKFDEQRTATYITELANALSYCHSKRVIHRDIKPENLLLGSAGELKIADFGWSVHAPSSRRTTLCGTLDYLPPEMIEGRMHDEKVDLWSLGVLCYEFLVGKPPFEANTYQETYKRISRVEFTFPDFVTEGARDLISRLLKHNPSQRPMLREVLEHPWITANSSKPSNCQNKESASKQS
Method: as §1, §2, §3
as §4, with “Aurora-A (h)” for “CDK6/cyclinD3 human”, “200 μM LRRASLG (Kemptide),” for “0.1 mg/ml histone H1,”, “50” for “75”

CDK6/cyclinD3 human, sequence (Q00534 whole entry): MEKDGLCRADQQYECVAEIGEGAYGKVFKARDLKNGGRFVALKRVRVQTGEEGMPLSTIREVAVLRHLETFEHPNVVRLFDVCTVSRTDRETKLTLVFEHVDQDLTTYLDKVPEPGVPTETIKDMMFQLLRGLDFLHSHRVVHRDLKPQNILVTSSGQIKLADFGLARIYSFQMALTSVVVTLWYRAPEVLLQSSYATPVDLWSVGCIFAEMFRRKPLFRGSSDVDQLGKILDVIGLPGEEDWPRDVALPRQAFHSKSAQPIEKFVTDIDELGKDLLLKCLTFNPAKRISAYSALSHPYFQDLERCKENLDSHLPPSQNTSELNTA
CDK6/cyclinD3 human, sequence (P30281 whole entry partner): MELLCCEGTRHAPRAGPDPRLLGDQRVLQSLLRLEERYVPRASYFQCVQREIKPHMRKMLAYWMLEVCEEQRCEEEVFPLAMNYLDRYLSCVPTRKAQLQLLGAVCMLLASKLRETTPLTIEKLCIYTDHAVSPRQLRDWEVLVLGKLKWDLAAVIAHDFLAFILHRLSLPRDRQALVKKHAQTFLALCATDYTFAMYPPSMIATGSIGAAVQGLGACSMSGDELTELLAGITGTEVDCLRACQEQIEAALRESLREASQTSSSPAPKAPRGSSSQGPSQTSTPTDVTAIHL
Yes (h), sequence (P07947 whole entry): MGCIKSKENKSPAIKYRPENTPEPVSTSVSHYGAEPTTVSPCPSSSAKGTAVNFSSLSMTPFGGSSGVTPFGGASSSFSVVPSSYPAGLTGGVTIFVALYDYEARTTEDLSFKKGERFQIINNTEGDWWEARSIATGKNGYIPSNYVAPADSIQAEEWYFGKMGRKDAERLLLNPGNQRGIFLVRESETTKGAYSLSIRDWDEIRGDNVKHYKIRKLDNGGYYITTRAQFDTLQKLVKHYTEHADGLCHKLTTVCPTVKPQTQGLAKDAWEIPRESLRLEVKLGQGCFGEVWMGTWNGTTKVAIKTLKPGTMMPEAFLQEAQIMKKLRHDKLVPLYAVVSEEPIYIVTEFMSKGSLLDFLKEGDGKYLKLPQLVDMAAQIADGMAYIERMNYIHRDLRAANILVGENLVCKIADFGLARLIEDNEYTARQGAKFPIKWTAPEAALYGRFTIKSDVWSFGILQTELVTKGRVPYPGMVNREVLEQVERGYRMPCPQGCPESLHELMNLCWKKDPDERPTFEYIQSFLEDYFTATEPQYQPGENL

| Structure (SMILES) | C3.3 score (CDK2/cyclinA (h)) | C3.7 score (CDK6/cyclinD3 human) | C3.10 score (Yes (h)) | C3.1 score (Aurora-A (h)) | C2 Score (Chang cells) |
| --- | --- | --- | --- | --- | --- |
| O=C1CN2CCN(CC2)Cc2cc(Cl)cc(c2)Nc2ncnc(n2)-c2ccnc(c2)CCCN1 [Compound 41] | 4 (Score 4 = >80% inhibition) | 1 (Score 1 = 10-30% inhibition) |  |  | 4 (Score 4=>80% increase in D-glucose incorporation) |
| CN1CC(=O)NCC#Cc2cc(ccn2)-c2ncnc(n2)Nc2cccc(c2)C1 [Compound 1] | 4 (Score 4 = >80% inhibition) | 4 (Score 4 = >80% inhibition) | 3 (Score 3 = 60-80% inhibition) | 1 (Score 1 = 10-30% inhibition) | 3 (Score 3=60-80% increase) |
| O=C1NCCCc2cc(ccn2)-c2ncnc(n2)Nc2cccc(c2)CN2C[C@H](O)C[C@@H]12 [Compound 14] | 4 (Score 4 = >80% inhibition) | 1 (Score 1 = 10-30% inhibition) | 1 (Score 1 = 10-30% inhibition) | 2 (Score 2 = 30-60% inhibition) |  |
| O=C1NCCCc2cc(ccc2F)-c2ncnc(n2)Nc2cc(Cl)cc(c2)CN[C@H]1CO [Compound 71] | 2 (Score 2 = 30-60% inhibition) | 2 (Score 2 = 30-60% inhibition) | 4 (Score 4 = >80% inhibition) | 2 (Score 2 = 30-60% inhibition) | 4 (Score 4=>80% increase in D-glucose incorporation) |
| O=C1CN2CCN(CC2)Cc2cccc(c2)Nc2ncnc(n2)-c2ccnc(c2)CCCN1 [Compound 36] | 4 (Score 4 = >80% inhibition) | 1 (Score 1 = 10-30% inhibition) | 1 (Score 1 = 10-30% inhibition) | 1 (Score 1 = 10-30% inhibition) | 4 (Score 4=>80% increase in D-glucose incorporation) |
| O=C1NCCCc2cncc(c2)-c2ncnc(n2)Nc2cccc(c2)CN[C@H]1CO [Compound 81] | 3 (Score 3 = 60-80% inhibition) | 1 (Score 1 = 10-30% inhibition) | 1 (Score 1 = 10-30% inhibition) | 1 (Score 1 = 10-30% inhibition) | 4 (Score 4=>80% increase in D-glucose incorporation) |
| CN1CCN(CCN2CCC(=O)NCCCc3cc(ccn3)-c3ncnc(n3)Nc3cccc(c3)C2)CC1 [Compound 11] | 1 (Score 1 = 10-30% inhibition) | 1 (Score 1 = 10-30% inhibition) | 1 (Score 1 = 10-30% inhibition) | 1 (Score 1 = 10-30% inhibition) |  |
| CN1CC(=O)NCCCc2cc(ccn2)-c2ncnc(n2)Nc2cc(Cl)cc(c2)C1 [Compound 33] | 4 (Score 4 = >80% inhibition) | 3 (Score 3 = 60-80% inhibition) |  |  | 4 (Score 4=>80% increase in D-glucose incorporation) |
| O=C1CN2CCN(CC2)Cc2cccc(c2)Nc2ncnc(n2)-c2ccnc(c2)CCCN1 [Compound 9] | 4 (Score 4 = >80% inhibition) | 1 (Score 1 = 10-30% inhibition) |  |  | 4 (Score 4=>80% increase in D-glucose incorporation) |
| O=C1NCCCc2cc(ccn2)-c2ncnc(n2)Nc2cccc(c2)CN2CCCC1C2 (centres unmarked) [Compound 15] | 2 (Score 2 = 30-60% inhibition) | 1 (Score 1 = 10-30% inhibition) | 1 (Score 1 = 10-30% inhibition) | 1 (Score 1 = 10-30% inhibition) |  |
| O=C1NCCCc2cc(ccn2)-c2ncnc(n2)Nc2cccc(c2)CN2CCCC12 (centres unmarked) [Compound 12] | 4 (Score 4 = >80% inhibition) | 1 (Score 1 = 10-30% inhibition) | 2 (Score 2 = 30-60% inhibition) | 1 (Score 1 = 10-30% inhibition) |  |

Continued, in another order:

| C3.3 score (CDK2/cyclinA (h)) | C3.7 score (CDK6/cyclinD3 human) | C3.10 score (Yes (h)) | C3.1 score (Aurora-A (h)) | Structure (SMILES) | C2 Score (Chang cells) |
| --- | --- | --- | --- | --- | --- |
| 4 (Score 4 = >80% inhibition) | 1 (Score 1 = 10-30% inhibition) |  |  | O=C1NCCCc2cccc(c2)-c2ncnc(n2)Nc2cccc(c2)CN[C@H]1CO [Compound 46] | 4 (Score 4=>80% increase in D-glucose incorporation) |
| 4 (Score 4 = >80% inhibition) | 1 (Score 1 = 10-30% inhibition) | 2 (Score 2 = 30-60% inhibition) |  | CCN1CC(=O)NCCCc2cccc(c2)-c2ncnc(n2)Nc2cccc(c2)C1 [Compound 54] | 4 (Score 4=>80% increase in D-glucose incorporation) |
| 4 (Score 4 = >80% inhibition) | 1 (Score 1 = 10-30% inhibition) | 2 (Score 2 = 30-60% inhibition) | 1 (Score 1 = 10-30% inhibition) | CN1CCCc2cc(ccn2)-c2ncnc(n2)Nc2cccc(c2)CNC(=O)C1 [Compound 7] | 3 (Score 3=60-80% increase) |
| 4 (Score 4 = >80% inhibition) | 1 (Score 1 = 10-30% inhibition) |  |  | CCN1CCCc2cc(ccn2)-c2ncnc(n2)Nc2cccc(c2)CCNC(=O)C1 [Compound 30] | 4 (Score 4=>80% increase in D-glucose incorporation) |
| 2 (Score 2 = 30-60% inhibition) | 1 (Score 1 = 10-30% inhibition) | 1 (Score 1 = 10-30% inhibition) | 2 (Score 2 = 30-60% inhibition) | CN1CCCC(=O)NCCCc2cc(ccn2)-c2ncnc(n2)Nc2cccc(c2)C1 [Compound 13] |  |
| 4 (Score 4 = >80% inhibition) | 2 (Score 2 = 30-60% inhibition) |  |  | CN1CC(=O)NCCCc2cc(ccn2)-c2ncnc(n2)Nc2cccc(c2)C1 [Compound 8] | 4 (Score 4=>80% increase in D-glucose incorporation) |
| 4 (Score 4 = >80% inhibition) | 2 (Score 2 = 30-60% inhibition) | 2 (Score 2 = 30-60% inhibition) | 1 (Score 1 = 10-30% inhibition) | CN1CCC(=O)NCCCc2cc(ccn2)-c2ncnc(n2)Nc2cccc(c2)C1 [Compound 3] |  |
| 3 (Score 3 = 60-80% inhibition) |  | 1 (Score 1 = 10-30% inhibition) |  | O=C1CN2CCN(CC2)Cc2cccc(c2)Nc2ncnc(n2)-c2ccc(F)c(c2)CCCN1 [Compound 66] | 4 (Score 4=>80% increase in D-glucose incorporation) |
| 4 (Score 4 = >80% inhibition) | 2 (Score 2 = 30-60% inhibition) |  |  | CCN1CC(=O)NCCCc2cc(ccn2)-c2ncnc(n2)Nc2cc(Cl)cc(c2)C1 [Compound 34] | 4 (Score 4=>80% increase in D-glucose incorporation) |

Source: patent US8778919B2, “Cyclic anilino—pyridinotriazines” (Janssen Pharmaceutica NV, priority 2005, dated 2014)
